Results reported in patent US20050014780A1, “Process for preparing 5-sulfonamido-8-hydroxy-1,6-naphthyridine-7-carboxamides” (priority 2001, published 2005).

Columns and labels:
[1] = biological target: recombinant integrase (HIV integrase) (Human immunodeficiency virus type 1 group M subtype B, UniProt P04585)
Description: The present invention includes the preparation of naphthyridine carboxamides of Formula (VIII) by the process set forth above in the Summary of the Invention. […] The strand transfer assay is described in Example 193 of WO 02/30930.

[2] = oral absorption and pharmacokinetics in animal models; assay type: in vivo; conditions: compared to Compound 15 per se

Structure (SMILES) | HIV integrase inhibition (in words) [1] | oral absorption [2] | pharmacokinetics [2]
O=C(NCc1ccc(F)cc1)c1nc(N2CCCCS2(=O)=O)c2cccnc2c1O [Compound 15, 5-(1,1-dioxido-1,2-thiazinan-2-yl)-N-(4-fluorobenzyl)-8-hydroxy-1,6-naphthyridine-7-carboxamide] | potent HIV integrase inhibitor | – | –
O=C(NCc1ccc(F)cc1)c1nc(N2CCCCS2(=O)=O)c2cccnc2c1[O-].[Na+] [Na salt of Compound 15, Sodium salt of 5-(1,1-Dioxido-1,2-thiazinan-2-yl)-N-(4-fluorobenzyl)-8-hydroxy-1,6-naphthyridine-7-carboxamide] | – | superior oral absorption | improved pharmacokinetics
